# Reference: patent publication US10793589B2, “Resorcinarene-based amphipathic compound and use thereof” (Industry-University Cooperation Foundation Hanyang …, priority 2016, dated 2020)
# Entries after “also recorded” stand apart in the source; their conditions may differ. Where two headings read alike, the source gives them in different places.
# Legend:
# [1] = target: T1, Salmonella typhimurium melibiose permease (MelB) (Salmonella typhimurium, UniProt P30878); test: MelB extraction and solubility after 90 min incubation, SDS-PAGE and western blotting; assay type: biochemical; conditions: 1.5 wt %
# T1 construct: made in house; host or cells: E. coli DW2 (melB and lacZY deleted), plasmid pK95AHB/WT MelBSt/CH10
# T1 sequence (P30878 whole entry): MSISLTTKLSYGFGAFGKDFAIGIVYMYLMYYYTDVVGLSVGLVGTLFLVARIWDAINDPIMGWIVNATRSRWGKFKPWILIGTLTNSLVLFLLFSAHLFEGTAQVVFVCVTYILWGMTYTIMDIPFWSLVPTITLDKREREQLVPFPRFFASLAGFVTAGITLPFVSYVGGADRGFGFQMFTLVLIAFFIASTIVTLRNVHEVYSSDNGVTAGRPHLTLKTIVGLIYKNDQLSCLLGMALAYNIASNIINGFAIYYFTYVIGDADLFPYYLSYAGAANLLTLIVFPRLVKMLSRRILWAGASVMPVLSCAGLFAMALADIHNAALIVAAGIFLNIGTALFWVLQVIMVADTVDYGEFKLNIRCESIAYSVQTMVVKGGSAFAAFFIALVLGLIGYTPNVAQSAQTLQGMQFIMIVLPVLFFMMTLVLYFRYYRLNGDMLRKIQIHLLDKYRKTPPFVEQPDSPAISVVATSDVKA
# Protocol: FIGS. 9A and 9B illustrate a result of measuring the amount of a MelB protein dissolved in an aqueous solution after a MelB protein was extracted at four temperatures (0, 45, 55, and 65) using RGAs or DDM at a concentration of 1.5 wt % and then incubated at the same temperatures for 90 minutes:
# RGAs were selected, and an experiment was carried out to measure the structural stability of a Salmonella typhimurium melibiose permease (MelB) caused by RGAs. A MelB protein was extracted from a membrane using RGAs or DDM, and the amount and structure of the protein thus extracted was then analyzed by performing SDS-PAGE and western blotting. In this case, the concentration of the used amphipathic compound was 1.5 wt %. The protein was extracted at four temperatures (0, 45, 55, and 65° C.) and then incubated at the same temperatures for 90 minutes. Subsequently, two kinds of performance of the compound, that is, protein extraction efficiency and protein stability were evaluated at the same time by measuring the amount of a protein which remained dissolved in an aqueous solution. The amount of a protein which was extracted and stabilized by an individual amphipathic molecule was expressed as a relative value (%) with respect to the amount of the entire protein included in a membrane sample not treated with an amphipathic molecule.
# Specifically, a C-terminal 10-His-tagged Salmonella typhimurium melibiose permease (MelBSt) was expressed in E. coli DW2 cells (melB and lacZY) using plasmid pK95AHB/WT MelBSt/CH10. Cells were grown and membranes were prepared according to the method described in a paper (Nat. Commun. 2014, 5, 3009) written by A. S. Ethayathulla et al. A protein assay was carried out with a Micro BCA kit (Thermo Scientific, Rockford, Ill.). RGAs and DDM were evaluated to measure the stability of MelBSt according to the protocol described in a paper (Nat. Methods 2010, 7, 1003-1008) written by P. S. Chae et al. The membrane sample (final protein concentration of 10 mg/mL) containing MelBSt was incubated in a solubilization buffer containing 1.5% (w/v) DDM or RGAs (20 mM sodium phosphate, pH 7.5, 200 mM NaCl, 10% glycerol, and 20 mM melibiose) at four temperatures (0, 45, 55, and 65° C.) for 90 minutes. An insoluble material was removed by ultracentrifugation at 355,590 g at 4° C. for 45 minutes using a Beckman Optima™ MAX ultracentrifuge equipped with a TLA-100 rotor. A dissolved portion was separated by SDS-16% PAGE, and immunoblotting was then performed using a Penta-His-HRP antibody (Qiagen, Germantown, Md.). A membrane fraction containing 20 μg of protein without treatment was used to illustrate the overall MelB, and the treated samples were loaded into each well in equal volume. MelBSt was measured using the SuperSignal West Pico Chemiluminescent substrate by ImageQuant LAS 4000 Biomolecular Imager (GE Healthcare Life Sciences).
# [2] = Critical micelle concentration by fluorescence dye diphenylhexatriene (DPH); assay type: physicochemical
# Protocol: A method of measuring the CMC is not particularly limited and may be any method generally known in the art. For example, the CMC may be measured according to a fluorescence staining method using diphenylhexatriene (DPH).
# (§1) Specifically, critical micelle concentrations (CMCs) were measured using a fluorescence dye, diphenylhexatriene (DPH), and hydrodynamic radii (Rh) of micelles formed of each compound (1.0 wt %) were measured by a dynamic light scattering (DLS) experiment. Measured results are shown in Table 1 in comparison with values of DDM as an existing amphipathic molecule (detergent).
# [3] = tested on: leucine transporter (LeuT); test: LeuT structural stability, [3H]-Leu binding by scintillation proximity assay (SPA); assay type: biochemical, Aquifex aeolicus; conditions: CMC+0.04 wt % versus CMC+0.2 wt %
# Protocol: (§2) FIGS. 7A and 7B are a set of graphs illustrating a result of measuring the structural stability of a leucine transporter (LeuT) solubilized in RGAs or DDM evaluated at CMC+0.04 wt % (a) or CMC+0.2 wt % (b). Protein stability was determined by measuring the ability of the transporter to bind a radiolabeled ligand ([3H]-Leu) via scintillation proximity assay (SPA). The substrate binding ability of LeuT was measured at regular intervals during 10 days of incubation of the protein at room temperature in the presence of individual amphipathic compounds.
# as §2, with “8A” for “7A”, “8B” for “7B”, “RMAs” for “RGAs”
# An experiment was carried out to measure the structural stability of a leucine transporter (LeuT) caused by RGAs and RMAs. The concentrations of individual amphipathic compounds were (a) CMC+0.04 wt % or (b) CMC+0.2 wt %, and the substrate binding characteristic of LeuT was measured by scintillation proximity assay (SPA) using [^3H]-Leu. […]
# Specifically, wild type LeuT derived from Aquifex aeolicus which is a thermophilic bacterium was purified according to the method described in the paper (Nature 1998, 392, 353-358) written by G. Deckert et al. LeuT was expressed in E. coli C41 (DE3) transformed with pET16b encoding a C-terminal 8×His-tagged transporter (an expression plasmid was provided by Dr. E. Gouaux (Vollum Institute, Portland, Oreg., USA)). […] The protein samples were stored at room temperature for 10 days and centrifuged at designated time points, and protein characteristics were determined by measuring the binding capacity of [^3H]-Leucine using SPA. […]
# [4] = Hydrodynamic radius and size distribution of micelles by dynamic light scattering (DLS); assay type: physicochemical; conditions: compound 1.0 wt %
# Protocol: A method of measuring the radius of a micelle is not particularly limited and may be any method generally known in the art. For example, the radius may be measured by a dynamic light scattering (DLS) experiment.
# as §1
# Meanwhile, size distributions of the micelles formed by RGAs and RMAs were measured using DLS.
# [5] = target: T2, human β2 adrenergic receptor (β2AR) (Homo sapiens, UniProt P07550); test: Size exclusion chromatography (SEC) of β2AR receptor-detergent complex; conditions: 20×CMC detergent
# T2 construct: made in house
# T2 sequence (P07550 whole entry): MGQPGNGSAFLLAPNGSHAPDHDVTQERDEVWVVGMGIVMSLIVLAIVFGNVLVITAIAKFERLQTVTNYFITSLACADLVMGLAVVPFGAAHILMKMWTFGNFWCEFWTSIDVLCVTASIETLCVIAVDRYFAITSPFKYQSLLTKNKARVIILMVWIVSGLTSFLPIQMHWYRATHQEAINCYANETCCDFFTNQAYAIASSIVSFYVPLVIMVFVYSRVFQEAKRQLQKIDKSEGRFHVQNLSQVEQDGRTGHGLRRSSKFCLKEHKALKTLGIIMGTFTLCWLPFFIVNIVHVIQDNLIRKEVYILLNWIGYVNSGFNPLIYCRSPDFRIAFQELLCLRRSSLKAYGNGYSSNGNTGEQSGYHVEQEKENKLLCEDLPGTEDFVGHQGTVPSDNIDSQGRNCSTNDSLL
# Protocol: FIG. 11 illustrates a result of evaluating the size characteristic of a (32AR protein-ligand binding complex formed of RGA-C11, RGA-C13, or DDM via a size exclusion chromatography (SEC) test.
# In addition, a size exclusion chromatography (SEC) test was conducted. Specifically, β2AR purified with 0.1% DDM was loaded on a M1 Flag column in the presence of 2 mM CaCl2, and the column was washed with a DDM, RGA-C11 or RGA-C13 detergent buffer (20 mM HEPES pH 7.5, 100 mM NaCl, 0.2% individual amphipathic compound). The receptor was eluted with 20×CMC DDM, RGA-C11, or RGA-C13 with 5 mM EDTA and 0.2 mg/ml free Flag peptide. The eluate was further added to a Superdex-200 10/300 GL column (GE Healthcare) at 0.5 ml/min, and UV absorbance at 280 nm was recorded. The running buffer contained 20 mM HEPES pH 7.5, 100 mM NaCl, 20×CMC individual detergent (DDM, RGA-C11 and RGA-C13).
# [6] = target: T2, human β2 adrenergic receptor (β2AR); test: β2AR stability, [3H]-dihydroalprenolol (DHA) ligand binding assay; assay type: biochemical
# Protocol: (§3) FIGS. 10A and 10B illustrate a result of measuring the effect of RGAs on the stability of β2AR after (a) 0 hour and (b) over time. Protein-ligand binding characteristics were measured via ligand binding assay using [^3H]-dihydroalprenolol (DHA), and the measurement was carried out by sampling a protein sample at regular intervals during 2 days of storage at room temperature.
# as §3, with “12A” for “10A”, “12B” for “10B”, “RMAs” for “RGAs”
# An experiment was carried out to measure the structural stability of a human (32 adrenergic receptor (β2AR) and a G protein-coupled receptor (GPCR) caused by RGAs and RMAs. That is, a receptor purified with DDM was diluted with a buffer solution containing only each RGA and RMA without cholesteryl hemisuccinate (CHS) or a buffer solution containing CHS and DDM. The final concentration of the compound was CMC+0.2 wt %, and the ligand binding characteristic of the receptor was measured using [^3H]-dihydroalprenolol ([^3H]-DHA) binding.
# Specifically, radioligand binding assay was carried out using the following method. β2AR was purified using 0.1% DDM according to the method described in a paper (Science, 2007, 318, 1266-1273.) written by D. M. Rosenbaum et al. and finally concentrated to about 10 mg/ml (about 200 μM). The β2AR purified with DDM was used to prepare a master binding mixture containing 10 nM [^3H]-dihydroalprenolol (DHA) supplemented with 0.5 mg/ml BSA in a 0.2% amphipathic compound (DDM, RGAs or RMAs). The receptor purified with DDM, RGAs or RMAs was incubated with 10 nM [^3H]-DHA at room temperature for 30 minutes. The mixture was loaded into a G-50 column, the flow-through was collected with 1 ml of a binding buffer (20 mM HEPES pH 7.5, 100 mM NaCl, supplemented with 0.5 mg/ml BSA and 20×CMC individual amphipathic compound, and the G-50 column was further filled with 15 ml of a scintillation fluid. Receptor-bound [^3H]-DHA was measured with a scintillation counter (Beckman). The binding capacity of [^3H]-DHA was measured and shown in a column graph. Each experiment was performed in triplicate.
compound,measurement,setting,value
"CCCCCCCCCCCCO[C@@H]1O[C@H](CO)[C@@H](O[C@H]2O[C@H](CO)[C@@H](O)[C@H](O)[C@H]2O)[C@H](O)[C@H]1O [DDM, n-dodecyl-β-D-maltopyranoside, reference compound]",MelB protein extraction/solubilization efficiency,[1]; 0° C.,high MelB protein extraction efficiency
same,MelB protein extraction efficiency and solubility,[1]; 45° C.,high MelB protein extraction efficiency
same,MelB protein extraction,[1]; 65° C.,hardly extracted
same,CMC,[2],0.17 mM
same,CMC,[2]; DPH fluorescence,0.17 mM
same,CMC (wt %),[2]; DPH fluorescence,0.0087 wt %
same,LeuT stabilization as concentration of compound increased,[3],constant structural collapse of the solubilized transporter
same,"Rh (nm), hydrodynamic radius of micelles",[4],3.4 ± 0.0 nm
CCCCCCCCCCCC[C@H]1c2cc(c(OCCO[C@@H]3OC(CO)[C@@H](O)[C@H](O)C3O)cc2OCCO[C@@H]2OC(CO)[C@@H](O)[C@H](O)C2O)[C@H](CCCCCCCCCCCC)c2cc(c(OCCO[C@@H]3OC(CO)[C@@H](O)[C@H](O)C3O)cc2OCCO[C@@H]2OC(CO)[C@@H](O)[C@H](O)C2O)[C@@H](CCCCCCCCCCCC)c2cc(c(OCCO[C@@H]3OC(CO)[C@@H](O)[C@H](O)C3O)cc2OCCO[C@@H]2OC(CO)[C@@H](O)[C@H](O)C2O)[C@@H](CCCCCCCCCCCC)c2cc1c(OCCO[C@@H]1OC(CO)[C@@H](O)[C@H](O)C1O)cc2OCCO[C@@H]1OC(CO)[C@@H](O)[C@H](O)C1O (stereo partly drawn) [RGA-C13],MelB protein extraction efficiency and solubility,[1]; 55° C.,maintained MelB solubility better than DDM; also recorded: higher protein extraction efficiency than DDM
same,CMC (wt %),[2]; DPH fluorescence,~0.0056 wt %
same,size of receptor-detergent complex,[5],significantly smaller than that formed of DDM
same,"Rh (nm), hydrodynamic radius of micelles",[4],3.7 ± 0.1 nm
same,maintaining the ligand binding characteristic of the receptor compared to DDM,"[6]; 0 hour, CMC+0.2 wt %, [3H]-DHA",superior to DDM
same,ability to maintain the ligand binding of the receptor over time compared to DDM,"[6]; 2 days at room temperature, early stage (0 to 12 h)",superior ability to maintain the ligand binding of the receptor compared to DDM
same,"receptor stability / ligand binding maintenance relative to DDM (fold, in words)","[6]; incubation at room temperature, early stage",enhanced by almost three times
